Results reported in US20120329767A1, “Methods and Compositions for Treating Cancer” (priority 2010, published 2012).
Read-outs that look alike come from different tables or passages of the source.

Assays:
CHOP protein = experiment: Expression of the CHOP protein, Western blot; assay type: cell-based, human; settings: A172 tumour cells treated 6 hours at 5 μM and 10 μM, versus reference compound
Text: (§1) To determine via which mechanisms of action compounds 8 and 9 could lead to slowing of cell proliferation or to cell death, the activation of two specific markers, the expression of the CHOP protein and phosphorylation of the histone H2AX on the serine site […] were monitored. The CHOP protein has pro-apoptotic properties (induction of cell death). Phosphorylation of the H2AX histone is a marker of DNA damage which leads to activation of p53, a protein having pro-apoptotic properties or the property of slowing cell proliferation.
(§2) In these experiments, the tumour cells A172 were treated for 6 hours with the compounds at two concentrations (5 μM and 10 μM). After the 6 hour treatment time, the cells were lysed and […] of soluble proteins were separated on 12% polyacrylamide gel. After migration, the proteins were transferred onto nitrocellulose using the Western blot technique. The proteins CHOP and H2AX were then detected using specific primary antibodies, themselves recognized by corresponding secondary antibodies whose peroxidase activity was identified using an ECL kit.

A-172 cells = experiment: MTT test on A172 glioblastoma cells; assay type: cell-based, human; settings: 48 h treatment, A-172 glioblastoma cells, Table 1
Experimental: Cisplatin was chosen as cytotoxic agent for comparison. As first approach, a MTT test was used to measure the activity of a mitochondrial enzyme which gives an estimation of the number of cells.
The experiments were performed under a vertical laminar flow hood. The cell growth medium was composed of DMEM (Dulbecco's Modified Eagle's Medium), HEPES, 10% FCS (Foetal Calf Serum), 5% PS (Penicillin, Streptomycin) and was stored at +4° C., and PBS (Phosphate Buffer Saline, pH=7.4). […] MTT (4,5-dimethylthiazol-2-diphenyltetrazolium bromide) is a yellow solid produced by Aldrich. It was placed in sterile aqueous solution at a concentration of 5 mg/ml and stored at +4° C. It was diluted to 10% in the cell culture medium when used as staining agent of the living cells.
(§3) When they were sufficiently numerous (70% confluence) they were washed in PBS at ambient temperature then mixed with 1.5 mL of Trypsin-EDTA to detach them from the Petri dish. […] After 48 hours, the medium was replaced by a MTT solution at 37° in the medium, which was placed in the incubator for at least one hour or until violet crystals derived from the complexing of MTT were formed quantitatively at the bottom of each well. […] The optical density of the solutions obtained was read off. […]

histone H2AX = experiment: Phosphorylation of histone H2AX, Western blot; assay type: cell-based, human; settings: A172 tumour cells treated 6 hours at 5 μM and 10 μM, versus reference compound
Text: as §1, §2

U87 = experiment: MTT test on U87 glioblastoma line; assay type: cell-based; settings: MTT method
Black-6 mice = Black-6 mice aged 8 weeks, single dose, intraperitoneal, followed up over 15 days
Text: As comparison, the acute toxicity of the above-described reference compound is given.
In this experiment, the injections were given via intraperitoneal route with groups of 5 animals per dose. The weight and survival of the animals were followed up over 15 days.

3LL = experiment: MTT test on 3LL lung cancer line; assay type: cell-based; settings: MTT method
N2A = experiment: MTT test on N2A neuroblastoma line; assay type: cell-based; settings: MTT method
A2780 = experiment: MTT test on A2780 ovarian cancer line; assay type: cell-based; settings: MTT method
Fadu = experiment: MTT test on Fadu head & neck cancer line; assay type: cell-based; settings: MTT method
[1] = test system: melanoma model F10B16 implanted in Black-6 mice; experiment: Tumour growth in in vivo melanoma model F10B16; settings: F10B16 melanoma in Black-6 mice, twice a week at 7.5 μmol/kg
Text: To determine the anti-cancer potential of these molecules, we analyzed the effects of compound 8 and compound 9 on tumour growth, using the in vivo melanoma model F10B16 implanted in Black-6 mice. […] The chronic treatments (twice a week at 7.5 μmol/kg) in mice having tumours led to a reduction in tumour growth. This reduction in tumour growth (treated tumour volume/non-treated tumour volume: T/C) was of the order of 80% for compound 8 and 60% for compound 9 (see Table 4 and FIGS. 6 and 7).
In these experiments, the […] cells (200 000 cells) were implanted sub-cutaneously in Black-6 mice aged 8 weeks. Groups of 6 mice per condition were formed. The treatments were started when the tumours were palpable with a volume of the order of 100 mm^3.

Katto III = experiment: MTT test on Katto III pancreatic cancer line; assay type: cell-based; settings: MTT method, Katto III gastric cancer
HCT-116 cells = experiment: MTT test on HCT116 colon cancer cells; assay type: cell-based, human; settings: MTT method, Table 2
Experimental: A human glioblastoma line (A172) and a colon cancer line (HCT116) were used to test the cytostatic effects of the compounds according to the invention. Cisplatin was chosen as cytotoxic agent for comparison. As first approach, a MTT test was used to measure the activity of a mitochondrial enzyme which gives an estimation of the number of cells.
The experiments were performed under a vertical laminar flow hood. The cell growth medium was composed of DMEM (Dulbecco's Modified Eagle's Medium), HEPES, 10% FCS (Foetal Calf Serum), 5% PS (Penicillin, Streptomycin) and was stored at +4° C., and PBS (Phosphate Buffer Saline, pH=7.4). […] MTT (4,5-dimethylthiazol-2-diphenyltetrazolium bromide) is a yellow solid produced by Aldrich. […]
as §3
The IC50 values (μM) were determined for each of the lines and compared with the values obtained for a reference ruthenium derived compound.

HCT116 cells = experiment: Cell cycle profile by FACS after propidium iodide staining; assay type: cell-based, human; settings: HCT116 cells treated 48 h at 1 μM and 5 μM
Text: The effect of compounds 8 and 9 on the cell profile was studied using the FACS technique (Fluorescence Activated Cell Sorter i.e. the association of a flow cytometer and a cell sorter) after staining the cells with propidium iodide to visualize the quantity of cell DNA. These analyses allow visualization of the cell cycle phase at which the cells accumulate subsequent to treatment with the compounds of the invention, and possibly whether cell death by apoptosis has been induced.
In this experiment, the HCT116 cells were treated for 48 h at the indicated doses (1 μM and 5 μM). After a treatment time of 48 h, the cells were washed three times with PBS (phosphate buffer saline) and fixed in 90% ethanol. The cells were then stained with a solution of propidium iodide/RNase. The stained cells (10 000 per sample) were then counted using a FACScan flow cytometer and CellQuest software (Becton Dickinson) to determine the DNA content and the profile of the cell cycle.

CC#[N+][Ru-4]123([c]4c(cc(C)cc4-c4cccc[n+]41)-c1cccc[n+]12)[n+]1cccc2ccc4ccc[n+]3c4c21.F[P-](F)(F)(F)(F)F [Compound (9)]
Induction of expression of the CHOP protein (CHOP protein): more efficient | IC50 (A-172 cells): 600 to 1000 nM | Phosphorylation of the histone H2AX on the serine site 137 (histone H2AX): more efficient | IC50 (U87): 1000 to 2000 nM | LD50 (Black-6 mice; listed as Compound 9): >60 µmol/kg | LD50 (Black-6 mice; listed as compound 9): > 60 µmol/kg | IC50 (3LL): 100 to 1000 nM | IC50 (N2A): 100 to 1000 nM | IC50 (A2780): 100 to 1000 nM | IC50 (Fadu): 100 to 1000 nM | T/C (reduction in tumour growth; treated tumour volume/non-treated tumour volume) ([1]; listed as Compound 9): 58% | T/C (reduction in tumour growth; treated tumour volume/non-treated tumour volume) ([1]; listed as compound 9): ~60% | IC50 (Katto III): 100 to 1000 nM | IC50 (HCT-116 cells): 100 to 1000 nM | Profile of the cell cycle (HCT116 cells): induce a halt in the cell cycle at phase G1 or cell death

CC#[N+][Ru-4]123([c]4c(cc(C(=O)OC)cc4-c4cccc[n+]41)-c1cccc[n+]12)[n+]1cccc2ccc4ccc[n+]3c4c21.F[P-](F)(F)(F)(F)F [Compound (8)]
Induction of expression of the CHOP protein (CHOP protein): more efficient | IC50 (A-172 cells): 1500 to 1900 nM | Phosphorylation of the histone H2AX on the serine site 137 (histone H2AX): more efficient | IC50 (U87): 1000 to 2500 nM | LD50 (Black-6 mice): 22.5 µmol/kg | IC50 (3LL): 1000 to 2000 nM | IC50 (N2A): 1000 to 2000 nM | IC50 (A2780): 1000 to 2000 nM | IC50 (Fadu): 1000 to 2000 nM | T/C (reduction in tumour growth; treated tumour volume/non-treated tumour volume) ([1]; listed as Compound 8): 81% | T/C (reduction in tumour growth; treated tumour volume/non-treated tumour volume) ([1]; listed as compound 8): ~80% | IC50 (Katto III): 1000 to 2000 nM | IC50 (HCT-116 cells): 1000 to 2000 nM | Profile of the cell cycle (HCT116 cells): induce a halt in the cell cycle at phase G1 or cell death
